Reference: patent US20040176274A1, “Analgesic methods using endothelin receptor ligands” (priority 2001, published 2004)
Values joined by “and” are separate entries in the source; they are usually repeats but may differ in a detail not shown here. Equal values may be shown once. Read-outs that look alike come from different tables or passages of the source. *1 amine or outer side, *2 acyl side, *3 side chain or, on linkers, in order; H or OH if unused. Where no end group is shown, it is not given here. Suc = O=C(CCC(=O)[*:2])[*:1]

What was measured:
[1] = test system: ET-1-induced pain in the rat plantar hindpaw; assay type: in vivo
Description: These examples are provided to illustrate the invention and should not be construed as limiting. ETA and ETB Receptors Mediate ET-1-induced Pain in the Rat Plantar Hindpaw An ET-1 animal model of acute pain was used to investigate the signaling pathways involved in endothelin receptor-mediated nociception. In this model system, acute pain was induced under sevoflurane anesthesia by subcutaneous ET-1 injection into the rat plantar hindpaw after 40 seconds of limb cooling. Injections were given either as a single 20 μl bolus for single compound or co-administration studies, or as two 10 μl injections separated by 1-2 minutes for pre-treatment studies, and were delivered into the mid plantar paw approximately 1 cm distal to the heel. Repetitive and spontaneous flinching of the ipsilateral hindpaw were counted in 5 minute blocks, beginning 5 minutes after ET-1 injection, for 75 minutes. […] Data was reported as the mean±s.e.m.

sciatic nerve C-fibers = assay: Electrophysiological recording of spike activity in nociceptive C-fibers after plantar hindpaw injection; assay type: in vivo, rat; settings: ET-1 2 nmoles, IRL-1620 2 nmoles; s.c. plantar hindpaw injection
Description: FIG. 5 is a representative series of electrophysiological recordings of C-fiber activity following subcutaneous plantar hindpaw injections of (A) ET-1 alone, (B) ET-1 and IRL-1620, and (C) ET-1, IRL-1620, and naloxone. The arrow in (A) indicates the time of ET-1 injection. The first and second arrows in (B) indicate the time of IRL-1620 and IRL-1620/ET-1 injections, respectively. The first and second arrows in (C) indicate the time of IRL-1620/naloxone and ET-1/IRL-1620/naloxone injections, respectively.
In order to confirm that ETB receptor activation inhibits the ET-1-induced pain response and that the inhibition is mediated through an opioid-sensitive mechanism, the spike response of IRL-1620 alone, and in combination with naloxone, were studied in nociceptive C-fibers. Spike activity was recorded in sciatic nerve C-fibers from twelve animals following subcutaneous plantar hindpaw injections of ET-1. The mean and maximum response frequencies following injection of ET-1 alone (2 nmoles) are 0.32±0.07 imp/s and 4.17+0.17 imp/s, respectively.

GIRK2 knockout mice = assay: ET-1 pain behavior (biting and licking) in GIRK2 knockout mice; assay type: in vivo; settings: ET-1 100 pmol s.c. mouse plantar hindpaw, 30 minutes
Description: (§1) The duration of biting and licking events was used as a measure of pain responsiveness following subcutaneous administration of ET-1(100 pmol) into the mouse plantar hindpaw. The duration of these events was assessed in five minute periods for 30 minutes after ET-1 injection.

wild-type control mice = assay: ET-1 pain behavior (biting and licking) in wild-type control mice; assay type: in vivo; settings: ET-1 100 pmol s.c. mouse plantar hindpaw, 30 minutes
Description: as §1

[2] = test system: cultured adult human primary keratinocytes; assay: β-endorphin release from cultured keratinocytes (radioimmunoassay); assay type: cell-based
Description: Cultured adult human primary keratinocytes, obtained during facelift procedures, were used to confirm that keratinocytes are the source of the extracellular β-endorphin that mediates ETB receptor-induced analgesia. Cultured keratinocytes were transferred to PBS and incubated in the presence of either 10 or 200 nM IRL-1620 for thirty or sixty minutes. Subsequently, the β-endorphin concentration in the PBS was measured by radioimmunoassay. In the absence of IRL-1620, the basal level of β-endorphin was 1.76±0.08 μg/ml. […] The intracellular concentration of β-endorphin in similarly treated cultured keratinocytes was 108±48 pg β-endorphin per 10^5 cells.

[3] = entire 75 minute observation period, dosages ET-1 2 nmol, BQ-788 60 nmol, IRL-1620 2 nmol, naloxone 55 nmol, tertiapin 20 pmol, mean ± s.e.m.
[4] = s.c. rat plantar hindpaw, dosages ET-1 2 nmol, BQ-788 60 nmol, IRL-1620 2 nmol, naloxone 55 nmol, tertiapin 20 pmol, mean ± s.e.m.
[5] = without ET-1, BQ-788 60 nmol bolus or 2 x 30 nmol, naloxone 55 nmol, tertiapin 20 pmol
[6] = 0.5 μg CL prior to ET-1 (2 nmol), 75 minute observation period, ET-1 line = control
[7] = 0.5 μg CL s.c. two minutes prior to ET-1 (2 nmol), ET-1 line = control
[8] = 0.5 μg CL, or equal volume of water (ET-1 + IRL-1620 line), prior to co-administration of ET-1 (2 nmol) and IRL-1620 (2 nmol)
[9] = CTOP 18.8 nmoles co-injected with ET-1 and IRL-1620
[10] = ET-1 4 nmol, s.c. rat plantar hindpaw
[11] = ET-1 6 nmol, s.c. rat plantar hindpaw
[12] = IRL-1620 4 nmol, alone or prior and co-administered with ET-1 2 nmol

## CCCC[C@@H](NC(=O)[C@@H](Cc1cn(C(=O)OC)c2ccccc12)NC(=O)[C@H](CC(C)(C)C)NC(=O)N1[C@H](C)CCC[C@@H]1C)C(=O)O (relative stereo) [BQ-788, N-cis-2,6-dimethylpiperidinocarbonyl-L-gamma-methylleucyl-D-1-methoxycarbonyltryptophanyl-D-Nle]
[1]; [3]
  Total Number of Flinches: 17.3 ± 2.3 flinches
[1]; [4]
  MFF (maximal flinch frequency): 5.8 ± 0.9 flinches per 5 minutes
  Time to MFF: 32.5 ± 10.2 min
[1]; [5]
  flinching behavior when administered alone compared to PBS control: did not result in altered flinching behaviors

## COc1ccc2c(c[n+](C)c3c4cc5c(cc4ccc23)OCO5)c1OC [CL, Chelerythrine chloride]
[1]; [6]
  Total Number of Flinches: 253±7
[1]; [7]
  MFF (maximal flinch frequency): 46±3 flinches per five minutes
[1]; [8]
  MFF (maximal flinch frequency): 39±3 flinches per five minutes
  total flinches: 207±10
[1]; 0.8 μg CL s.c. rat plantar hindpaw
  toxicity: showed signs of toxicity

## C=CCN1CC[C@]23c4c5ccc(O)c4O[C@H]2C(=O)CC[C@@]3(O)[C@H]1C5 [Naloxone, naloxone]
[1]; [3]
  Total Number of Flinches: 16.1 ± 4.1 flinches
[1]; [4]
  MFF (maximal flinch frequency): 3.3 ± 0.8 flinches per 5 minutes
  Time to MFF: 28.6 ± 5.6 min
[1]; [5]
  flinching behavior when administered alone compared to PBS control: did not induce flinching behavior that was different from PBS control

## Oc1ccc2c3c1O[C@H]1c4[nH]c5ccccc5c4C[C@@]4(O)[C@@H](C2)N(CC2CC2)CC[C@]314 [naltrindole]
[1]; naltrindole with ET-1 alone or the ET-1/IRL-1620 combination
  effect on flinching behavior: did not affect flinching behavior

## Oc1ccc2c3c1O[C@H]1c4[nH]c5c(c4C[C@@]4(O)[C@@H](C2)N(CC2CC2)CC[C@]314)C[C@@]1(O)[C@H]2Cc3ccc(O)c4c3[C@@]1(CCN2CC1CC1)[C@H]5O4 [nor-BNI]
[1]; nor-BNI 3.4 mM
  effect on flinching caused by ET-1 administration alone: partially enhanced the flinching

## Ala-Leu-Cys-Asn-Cys-Asn-Arg-Ile-Ile-Ile-Pro-His-Met-Cys-Trp-Lys-Lys-Cys-Gly-Lys-Lys (ALCNCNRIIIPHMCWKKCGKK) [Tertiapin, GIRK channel antagonist]
[1]; [3]
  Total Number of Flinches: 17 ± 6 flinches
[1]; [5]
  flinching behavior when administered alone compared to PBS control: did not induce flinching behavior that was different from naloxone or PBS control

## CTOP
[1]; [9]
  MFF (maximal flinch frequency): 31±4 flinches/5 minutes
  effect on IRL-1620 analgesia: blocked the analgesic effects of IRL-1620

## Cys-Ser-Cys-Ser-Ser-Leu-Met-Asp-Lys-Glu-Cys-Val-Tyr-Phe-Cys-His-Leu-Asp-Ile-Ile-Trp [ET-1]
Sciatic nerve C-fibers
  maximum response frequency of C-fiber spike activity: 4.17 ± 0.17 imp/s
  mean response frequency of C-fiber spike activity: 0.32±0.07 imp/s
[1]; [6]
  Total Number of Flinches: 153±11
[1]; [7]
  MFF (maximal flinch frequency): 27±2 flinches per five minutes
[1]; ET-1 4 nmol
  flinching behavior returning to baseline: ≤ 75 min
  start of flinching after injection: 10 to 20 min
[1]; ET-1 4 nmol, n=12
  animals with evoked ipsilateral hindpaw flinching: 100%
[1]; [10]
  MFF (maximal flinch frequency): 40.2±3.9 flinches per 5 minutes
  Time to MFF: 40.8 ± 2.8 min
[1]; ET-1 4 nmol, entire 75 minute observation period
  Total Number of Flinches: 178.5±29.1 flinches
[1]; [11]
  MFF (maximal flinch frequency): 41.9±8.7 flinches per 5 minutes
  Time to MFF: 22.5 ± 4.1 min
[1]; ET-1 6 nmol, entire 75 minute observation period
  Total Number of Flinches: 253.3 ± 66.2 flinches
[1]; [4]
  MFF (maximal flinch frequency): 23.8±1.9 flinches per 5 minutes and 24±2 flinches per 5 minutes
GIRK2 knockout mice
  total duration of biting and licking behavior: 218 ± 18 s
wild-type control mice
  total duration of biting and licking behavior: 152 ± 18 s

## Suc-Asp-Glu-Glu-Ala-Val-Tyr-Phe-Ala-His-Leu-Asp-Ile-Ile-Trp (Suc-DEEAVYFAHLDIIW) [IRL-1620, ETB receptor agonist]
[1]; IRL-1620 4 nmol alone
  flinching behavior when administered alone compared to PBS control: small but significant increase in flinching behavior
[1]; [12]
  MFF (maximal flinch frequency): 4.7 ± 0.6 flinches per 5 minutes
  Time to MFF: 33.3 ± 6.1 min
[1]; IRL-1620 4 nmol, alone or with ET-1 2 nmol, 75 minutes
  Total Number of Flinches: 22.1 ± 3.1 flinches
[2]; 10 nM IRL-1620, 60 minute incubation
  change in extracellular β-endorphin: did not result in a significant change
[2]; 200 nM IRL-1620 in PBS, basal level 1.76±0.08 μg/ml
  extracellular β-endorphin concentration: 10.5 ± 3 µg/mL
[2]; 200 nM IRL-1620 versus basal
  increase in extracellular β-endorphin: 5 fold
[2]; similarly treated cultured keratinocytes
  intracellular concentration of β-endorphin: 108±48 pg β-endorphin per 10^5 cells
